Measurements published in BindingDB's records for doi:10.1016/j.bmcl.2006.10.030 (Paris-Sud University, 2007).

These compounds were tested against Triosephosphate isomerase (Homo sapiens, UniProt P60174) (assay: Inhibition of triosephosphate isomerase).
Chain of Triosephosphate isomerase (P60174 whole entry): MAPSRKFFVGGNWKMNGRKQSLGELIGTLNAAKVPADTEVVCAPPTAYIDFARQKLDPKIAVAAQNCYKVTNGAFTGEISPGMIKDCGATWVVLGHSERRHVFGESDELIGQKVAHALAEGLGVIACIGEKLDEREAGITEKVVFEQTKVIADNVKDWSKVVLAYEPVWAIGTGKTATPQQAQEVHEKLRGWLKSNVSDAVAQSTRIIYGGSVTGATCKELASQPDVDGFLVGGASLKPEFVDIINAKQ

How did the Ki turn out when `N=C(COP(=O)(O)O)NO` [Phosphoric acid mono-(N-hydroxycarbamimidoylmethyl) ester] was run?
The Ki was 4.5 µM.

`O=C(CCP(=O)(O)O)NO` [hydrogen 3-(hydroxyamino)-3-oxopropylphosphonate] was tested. Which Ki did it give?
The Ki was 160 µM.

Which Ki does the source give for `NC(CC(=O)NO)P(=O)(O)O` (stereo not given) [hydrogen [1-azaniumyl-2-(hydroxycarbamoyl)ethyl]phosphonate] here?
Its Ki is over 500 µM.

How did the Ki turn out when `O=C(COP(=O)(O)O)NO` [2-(hydroxyamino)-2-oxoethyl dihydrogen phosphate] was run?
The Ki was 3 µM.

`NNC(=O)COP(=O)(O)O` [Phosphoric acid monohydrazinocarbonylmethyl ester] was tested. Which Ki did it give?
Its Ki is 111 µM.
